Data: PubChem BioAssay AID2060492 (Molecular Pharmacology Branch, DTP, NCI, 2025)

Test system: 695427-040-R-J1-PDC complex spheroids, viability percent T/C
Experiment: Anticancer human tumor 695427-040-R-J1-PDC patient-derived colon adenocarcinoma cell line growth inhibition [GQUAD]
Details: for IC50: curve of first compound; for viability, T/C: stronger effect = lower value
How it was run: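 Viability of tumor cells grown as complex spheroids with endothelial and stromal cells, exposed to drug combinations. Top concentration at or near clinical Cmax (else 10 microM), diluted in half-log increments.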

[1] = second compound 0.0316 µM, first compound 0.0316 µM
[2] = second compound 0.0316 µM, first compound 0.316 µM
[3] = second compound 0.1 µM, first compound 0.0316 µM
[4] = second compound 0.1 µM, first compound 0.316 µM
[5] = second compound 0.316 µM, first compound 0.0316 µM
[6] = second compound 0.316 µM, first compound 0.316 µM
[7] = second compound 1 µM, first compound 0.0316 µM
[8] = second compound 1 µM, first compound 0.316 µM
[9] = second compound 3.16 µM, first compound 0.0316 µM
[10] = second compound 3.16 µM, first compound 0.316 µM
[11] = second compound 10 µM, first compound 0.0316 µM
[12] = second compound 10 µM, first compound 0.316 µM
[13] = second compound 0.0316 µM, first compound 0.1 µM
[14] = second compound 0.0316 µM, first compound 1 µM
[15] = second compound 0.0316 µM, first compound 3.16 µM
[16] = second compound 0.0316 µM, first compound 10 µM
[17] = second compound 0.1 µM, first compound 0.1 µM
[18] = second compound 0.1 µM, first compound 1 µM
[19] = second compound 0.1 µM, first compound 3.16 µM
[20] = second compound 0.1 µM, first compound 10 µM
[21] = second compound 0.316 µM, first compound 0.1 µM
[22] = second compound 0.316 µM, first compound 1 µM
[23] = second compound 0.316 µM, first compound 3.16 µM
[24] = second compound 0.316 µM, first compound 10 µM
[25] = second compound 1 µM, first compound 0.1 µM
[26] = second compound 1 µM, first compound 1 µM
[27] = second compound 1 µM, first compound 3.16 µM
[28] = second compound 1 µM, first compound 10 µM
[29] = second compound 3.16 µM, first compound 0.1 µM
[30] = second compound 3.16 µM, first compound 1 µM
[31] = second compound 3.16 µM, first compound 3.16 µM
[32] = second compound 3.16 µM, first compound 10 µM
[33] = second compound 10 µM, first compound 0.1 µM
[34] = second compound 10 µM, first compound 1 µM
[35] = second compound 10 µM, first compound 3.16 µM
[36] = second compound 10 µM, first compound 10 µM
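Note: spheroids exposed to compounds for seven days before readout.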

CCc1c2c(nc3ccc(O)cc13)-c1cc3c(c(=O)n1C2)COC(=O)[C@]3(O)CC + Cc1[nH]c2ccc(F)cc2c1-c1nc2c3cccnc3c3ncccc3c2[nH]1
IC50 (second compound 0.0316 µM): 0.168 µM
IC50 (second compound 0.1 µM): 0.161 µM
IC50 (second compound 0.316 µM): 0.112 µM
IC50 (second compound 1 µM): 0.106 µM
IC50 (second compound 3.16 µM): 0.0824 µM
IC50 (second compound 10 µM): 0.106 µM
viability, T/C (second compound 0.0316 µM, first compound 0.000999 µM): 95.4%
viability, T/C (second compound 0.0316 µM, first compound 0.00316 µM): 74%
viability, T/C (second compound 0.0316 µM, first compound 0.00999 µM): 87.9%
viability, T/C [1]: 57.8%
viability, T/C (second compound 0.0316 µM, first compound 0.0999 µM): 62%
viability, T/C [2]: 40.8%
viability, T/C (second compound 0.1 µM, first compound 0.000999 µM): 93.7%
viability, T/C (second compound 0.1 µM, first compound 0.00316 µM): 71.6%
viability, T/C (second compound 0.1 µM, first compound 0.00999 µM): 80.2%
viability, T/C [3]: 57.7%
viability, T/C (second compound 0.1 µM, first compound 0.0999 µM): 57.6%
viability, T/C [4]: 43%
viability, T/C (second compound 0.316 µM, first compound 0.000999 µM): 99.5%
viability, T/C (second compound 0.316 µM, first compound 0.00316 µM): 64.2%
viability, T/C (second compound 0.316 µM, first compound 0.00999 µM): 82.2%
viability, T/C [5]: 63.2%
viability, T/C (second compound 0.316 µM, first compound 0.0999 µM): 56.1%
viability, T/C [6]: 34.5%
viability, T/C (second compound 1 µM, first compound 0.000999 µM): 67.7%
viability, T/C (second compound 1 µM, first compound 0.00316 µM): 85.8%
viability, T/C (second compound 1 µM, first compound 0.00999 µM): 82%
viability, T/C [7]: 64.6%
viability, T/C (second compound 1 µM, first compound 0.0999 µM): 52.5%
viability, T/C [8]: 37.6%
viability, T/C (second compound 3.16 µM, first compound 0.000999 µM): 72%
viability, T/C (second compound 3.16 µM, first compound 0.00316 µM): 74.5%
viability, T/C (second compound 3.16 µM, first compound 0.00999 µM): 63.5%
viability, T/C [9]: 59.5%
viability, T/C (second compound 3.16 µM, first compound 0.0999 µM): 48.7%
viability, T/C [10]: 33.2%
viability, T/C (second compound 10 µM, first compound 0.000999 µM): 71.9%
viability, T/C (second compound 10 µM, first compound 0.00316 µM): 72.2%
viability, T/C (second compound 10 µM, first compound 0.00999 µM): 66.4%
viability, T/C [11]: 60.8%
viability, T/C (second compound 10 µM, first compound 0.0999 µM): 49.8%
viability, T/C [12]: 37.4%

CC(C)n1c(=O)n(C)c2cnc3cc(F)c(-c4ccc(OCCCN5CCCCC5)nc4)cc3c21 + CN(C)c1ccc(Nc2c3ccc(NC(=O)CCN4CCCC4)cc3nc3cc(NC(=O)CCN4CCCC4)ccc23)cc1
IC50 (second compound 0.0316 µM): > 10 µM
IC50 (second compound 0.1 µM): > 10 µM
IC50 (second compound 0.316 µM): > 10 µM
IC50 (second compound 1 µM): > 10 µM
IC50 (second compound 3.16 µM): > 10 µM
IC50 (second compound 10 µM): > 10 µM
viability, T/C [1]: 113%
viability, T/C [13]: 96.1%
viability, T/C [2]: 111%
viability, T/C [14]: 101%
viability, T/C [15]: 104%
viability, T/C [16]: 66%
viability, T/C [3]: 107%
viability, T/C [17]: 97.3%
viability, T/C [4]: 106%
viability, T/C [18]: 102%
viability, T/C [19]: 110%
viability, T/C [20]: 62.5%
viability, T/C [5]: 108%
viability, T/C [21]: 98.5%
viability, T/C [6]: 102%
viability, T/C [22]: 106%
viability, T/C [23]: 100%
viability, T/C [24]: 67.4%
viability, T/C [7]: 101%
viability, T/C [25]: 102%
viability, T/C [8]: 110%
viability, T/C [26]: 105%
viability, T/C [27]: 100%
viability, T/C [28]: 62.9%
viability, T/C [9]: 86.4%
viability, T/C [29]: 101%
viability, T/C [10]: 94.4%
viability, T/C [30]: 98.8%
viability, T/C [31]: 95.5%
viability, T/C [32]: 68.1%
viability, T/C [11]: 89.4%
viability, T/C [33]: 92.2%
viability, T/C [12]: 93.3%
viability, T/C [34]: 89.3%
viability, T/C [35]: 93.7%
viability, T/C [36]: 59.4%

COc1ccc([C@@H](O)c2cc(-c3ncnc4cc(N5CCOCC5)ccc34)c(F)cc2Cl)nn1 + CN(C)c1ccc(Nc2c3ccc(NC(=O)CCN4CCCC4)cc3nc3cc(NC(=O)CCN4CCCC4)ccc23)cc1
IC50 (second compound 0.0316 µM): 8.39 µM
IC50 (second compound 0.1 µM): > 10 µM
IC50 (second compound 0.316 µM): 9.75 µM
IC50 (second compound 1 µM): 8.02 µM
IC50 (second compound 3.16 µM): 8.26 µM
IC50 (second compound 10 µM): 6.96 µM
viability, T/C [1]: 97.4%
viability, T/C [13]: 98.5%
viability, T/C [2]: 94.6%
viability, T/C [14]: 87.2%
viability, T/C [15]: 67.2%
viability, T/C [16]: 46.9%
viability, T/C [3]: 99.3%
viability, T/C [17]: 101%
viability, T/C [4]: 89.4%
viability, T/C [18]: 81.2%
viability, T/C [19]: 72.9%
viability, T/C [20]: 50%
viability, T/C [5]: 97.2%
viability, T/C [21]: 96.7%
viability, T/C [6]: 89.3%
viability, T/C [22]: 82.3%
viability, T/C [23]: 68.5%
viability, T/C [24]: 49.3%
viability, T/C [7]: 93.6%
viability, T/C [25]: 103%
viability, T/C [8]: 100%
viability, T/C [26]: 79%
viability, T/C [27]: 74.3%
viability, T/C [28]: 44.4%
viability, T/C [9]: 102%
viability, T/C [29]: 96.4%
viability, T/C [10]: 98.7%
viability, T/C [30]: 83.3%
viability, T/C [31]: 68.4%
viability, T/C [32]: 46.3%
viability, T/C [11]: 88.8%
viability, T/C [33]: 77.3%
viability, T/C [12]: 90.5%
viability, T/C [34]: 72.8%
viability, T/C [35]: 63.8%
viability, T/C [36]: 44%

Nc1ccn(C2OC(CO)C(O)C2(F)F)c(=O)n1 (stereo not drawn) + Cc1[nH]c2ccc(F)cc2c1-c1nc2c3cccnc3c3ncccc3c2[nH]1
IC50 (second compound 0.0316 µM): > 10 µM
IC50 (second compound 0.1 µM): > 10 µM
IC50 (second compound 0.316 µM): > 10 µM
IC50 (second compound 1 µM): > 10 µM
IC50 (second compound 3.16 µM): 1.65 µM
IC50 (second compound 10 µM): 1.44 µM
viability, T/C [1]: 78.4%
viability, T/C [13]: 74.8%
viability, T/C [2]: 71.3%
viability, T/C [14]: 54.6%
viability, T/C [15]: 56.4%
viability, T/C [16]: 46.7%
viability, T/C [3]: 92.2%
viability, T/C [17]: 75.1%
viability, T/C [4]: 59%
viability, T/C [18]: 54.1%
viability, T/C [19]: 60.5%
viability, T/C [20]: 52.1%
viability, T/C [5]: 86%
viability, T/C [21]: 70.8%
viability, T/C [6]: 64.4%
viability, T/C [22]: 55.1%
viability, T/C [23]: 66.6%
viability, T/C [24]: 46.5%
viability, T/C [7]: 87.3%
viability, T/C [25]: 64.6%
viability, T/C [8]: 59.2%
viability, T/C [26]: 57.9%
viability, T/C [27]: 63.1%
viability, T/C [28]: 48.8%
viability, T/C [9]: 67.6%
viability, T/C [29]: 55.4%
viability, T/C [10]: 55.5%
viability, T/C [30]: 53.3%
viability, T/C [31]: 51.4%
viability, T/C [32]: 39.8%
viability, T/C [11]: 63.2%
viability, T/C [33]: 59.4%
viability, T/C [12]: 57.8%
viability, T/C [34]: 51%
viability, T/C [35]: 43%
viability, T/C [36]: 47.4%
